Tested on: HUVECs
Assay: Thrombin induced stress fiber formation in endothelial cells
Type: cell-based, human
Settings: aminosterol 20 μM, thrombin 20 ng/ml, 2 hours
Experimental: The basic methods have been published (Williams, […] et al. 2001). HUVECs were grown on fibronectin-covered coverslips in EGM medium. […] Following a rinse, the cells were exposed to a 1:400 dilution of an FITC-goat antimurine antibody and 250 ng/ml TRITC phalloidin. The stained coverslips were visualized by fluorescence microscopy.

Structure (SMILES)	Disruption of thrombin induced stress fiber formation
CC(C)[C@@H](CC[C@@H](C)[C@H]1CC[C@H]2[C@@H]3[C@@H](O)C[C@H]4C[C@@H](NCCCNCCCCN)CC[C@]4(C)[C@H]3CC[C@]12C)OS(=O)(=O)O [Compound A]	disrupt thrombin induced stress fiber formation and inhibited thrombin-induced stress fiber formation and Yes
CC(C)[C@@H](CC[C@@H](C)[C@H]1CC[C@H]2[C@@H]3[C@H](O)C[C@H]4C[C@H](NCCCNCCCCN)CC[C@]4(C)[C@H]3CC[C@]12C)OS(=O)(=O)O [Compound B]	disrupt thrombin induced stress fiber formation and inhibited thrombin-induced stress fiber formation and Yes
CC(C)[C@H](CC[C@@H](C)[C@H]1CC[C@H]2[C@@H]3[C@H](O)C[C@H]4C[C@@H](NCCCNCCCCN)CC[C@]4(C)[C@H]3CC[C@]12C)OS(=O)(=O)O [Compound C]	disrupt thrombin induced stress fiber formation and inhibited thrombin-induced stress fiber formation and Yes
CC(C)[C@@H](CC[C@H](C)[C@H]1CC[C@H]2[C@@H]3[C@H](O)C[C@H]4C[C@@H](NCCCNCCCCN)CC[C@]4(C)[C@H]3CC[C@]12C)OS(=O)(=O)O [Compound D]	not observed and inactive and No
CC(C)[C@@H](CC[C@@H](C)[C@H]1CC[C@H]2[C@@H]3[C@H](O)C[C@H]4CC(N)CC[C@]4(C)[C@H]3CC[C@]12C)OS(=O)(=O)O (stereo partly drawn) [Compound E]	not observed and No
CC(C)[C@@H](CC[C@@H](C)[C@H]1CC[C@H]2[C@@H]3[C@H](O)C[C@H]4C[C@@H](NCCCOCCCN)CC[C@]4(C)[C@H]3CC[C@]12C)OS(=O)(=O)O [Compound F]	not observed and No
